The values that follow come from patent US10251845B2, “Fatty acid cysteamine conjugates and their use as activators of autophagy” (Catabasis Pharmaceuticals, Inc., priority 2014, dated 2019).

Entries after “also recorded” stand apart in the source; their conditions may differ. Read-outs that look alike come from different tables or passages of the source.

One series concerns the target ΔF508 CFTR (Homo sapiens, UniProt P13569, DEL508-508). Briefly: Ussing chamber short circuit current in Fisher Rat Thyroid epithelial cells overexpressing ΔF508-CFTR. It is filed as cell-based. Also noted: expressed in transfected cells; host or cells: Fisher Rat Thyroid (FRT) epithelial cells, stably transfected. The conditions noted are these: FRT cells, 10 μM, 4 hours. The method, then: The most prevalent disease causing mutation of the CF transmembrane conductance regulator (CFTR) chloride channel is the deletion of phenylalanine at position 508 in the primary sequence of CFTR (ΔF508-CFTR). This mutation causes a trafficking defect resulting in a severe reduction of ΔF508-CFTR protein at the cell surface. The trafficking defect can be corrected by incubation at low temperature (27° C. overnight) or pharmacologically by small molecules and CFTR correctors. Chloride transport function of Fisher Rat Thyroid (FRT) epithelial cells overexpressing ΔF508-CFTR in monolayers grown on Snapwell™ filter inserts will be monitored as the CFTR agonist evoked short circuit (ISC) current output of an Ussing epithelial voltage clamp apparatus. An objective of this study is to measure the ability of test compounds to restore function to defective ΔF508-CFTR in FRT epithelial cell monolayers.
Measurement of corrector efficacy is divided into two phases. The initial phase is incubation of epithelia with the test compounds for a period of time (that can range from 2 hours to one or two days) in a 37° C. incubator and the second phase is measurement of epithelial ΔF508-CFTR chloride channel current with an epithelial voltage clamp (Ussing assay). The short circuit current (ISC) is measured under short circuit conditions (0 mV transepithelial potential). The ISC magnitude is an index of corrector efficacy and is compared to vehicle and positive control.
Cryopreserved FRT cells stably transfected with ΔF508-CFTR cDNA (Pedemonte et al. (2005) J. CLIN. INVEST., 115, p. 2564-2571) were expanded and plated on Snapwell™ filters for measurement of short circuit current in an Ussing apparatus (Physiologic Instruments, Inc., Sand Diego, Calif.). Cells were grown in Coon's modification of Ham's F-12 media supplemented with zeocin and G-418.
To conduct the assay, a compound of the invention was solubilized as follows: • 1) Prepare 25 mM stock solution in 100% DMSO. • 2) Dilute 12 μL of 25 mM stock solution in 1.20 mL of FBS to make 250 μM intermediate dilution 10× stock (1% DMSO, 99% FBS). Gently vortex all solutions until the solution becomes clear. • 3) Prepare final dilution of 10 μM in 10 mL of Coon's media per well (4 wells×2 mL per well bottom+0.2 mL per insert top=8.8 mL and 1.2 mL reserve for handling losses) by addition of 400 μL of 10× stock and 600 μL of 10× carrier (1% DMSO, 99% FBS) to 9000 μL of Coon's media.
For this example, the test compound was solubilized and added to the appropriate inserts of Ussing chambers (n=4 for each test compound, final test concentration of 10 μM). A DMSO vehicle control and a positive control (VX-809 at 3 μM) were also used. For this particular example, all the test articles, including the positive control, were incubated with the cells for a period of 4 hours. The FRT cell monolayers grown on Snapwell™ filter inserts were transferred to Physiologic Instruments Ussing recording chambers (Physiologic Instruments, Inc., San Diego, Calif.) and superfused with HB-PS on the basolateral side and 78CF-PS on the apical side. One or more 6-channel or 8-channel Physiologic Instruments VCC MC6 or VCC MC8 epithelial voltage clamps were then used in combination to record the short circuit current (ISC) during the entire run. To initiate the ISC measurement, amphotericin (100 μM) was added to the basolateral side of the Snapwell™ filter insert to permeabilize the epithelial cells for 15 min. Forskolin (10 μM), IBMX (100 μM), Genistein (20 μM) and the CFTRinh-172 (20 μM) were added sequentially after the following incubation periods (15 min, 20 min, 10 min, 15 min and 15 min respectively). Data acquisition and analyses were performed using iWorx data acquisition hardware and Labscribe 2 software (iWorx, Dover, N.H.). […]

Series [1] can be described thus: Plasma stability, rat plasma. It is filed as in vitro ADME. The conditions noted are these: rat plasma, 5 μM, 0.5, 1 and 2 hour time points. The method, then: (§1) The in vitro stability of the test compounds was studied in human, mouse, beagle and rat plasma (plasma was purchased from Bioreclamation). Plasma was diluted to 50% with PBS (pH 7.4). Test compounds were dissolved in DMSO to a final concentration of 10 mM and then diluted to 1 mM in MeOH. Incubations were carried at a test compound concentration of 5 μM with a final DMSO concentration of 2.5%. Plasma (198 μL) was added to 96-well plate and incubated at 37° C. for 30 minutes before the addition of […] of the test compound. The resulting mixture was then incubated at 37° C. for 2 hours. At appropriate time intervals (0, 30, 60 and 120 minutes), aliquots (50 μL) were removed and reactions were terminated by adding 200 μL of acetonitrile with an internal standard. Simultaneously, plasma samples containing Benflourex or Procaine (control compound) were terminated by adding 200 μL of acetonitrile internal standard. The sample plate was centrifuged at 3500 rpm for 45 minutes at 4° C. and the supernatant was transferred to a new plate for analysis by LC/MS-MS (Agilent Model No: HPLC: 1200, MS: 6410). […] A binary gradient consisting of 0.1% formic acid in water and 0.1% formic acid in methanol was used for analyte elution.

In another series the test system is LC3-II/LC3-I. In words: LC3 immunoblotting in Huh-7 cells (autophagy). It is filed as cell-based. The method, then:
The test compound was first solubilized in 100% DMSO as a 50 mM solution, and then diluted 1 to 100 in FBS as a 10× stock solution of 500 μM.
Huh-7 cells were seeded in 10% FBS DMEM overnight. The cells media were replaced with drug diluted 1 to 10 in DMEM (final concentration 50 μm in 10% FBS DMEM). Four hours after the drug addition, cells were lysed in RIPA buffer. Cell lysates were analyzed by immunoblotting with anti-LC3A/B antibodies (Cell signaling 12741). Data were presented as LC3-II/LC3-I ratio compared to vehicle treated samples.
The same experimental procedure detailed in Example 11 was used, except that 2 hours after the drug addition, cells were lysed in RIPA buffer, instead of the previously described 4 hours. Cell lysates were again analyzed by immunoblotting with anti-LC3A/B antibodies (Cell Signaling Technology 12741). Data were presented as LC3-II/LC3-I ratio compared to vehicle treated samples.
This same synergy experiment was repeated in Huh-7 cells after a 4 hour treatment with compound II-2 along with a higher concentration of the individual components (250 μM each of cystamine, EPA or a combination of cystamine and EPA).
(Immunoblotting shows a protein as a band on a membrane.)

The nature of series [2]: Plasma stability, mouse plasma. The series is classed as in vitro ADME. Conditions: 5 μM, 0.5, 1 and 2 hour time points. The method, then:
as §1

The nature of series [3]: Oral cannulated rat PK study (portal and jugular vein). The series is classed as in vivo, Sprague Dawley rats. The conditions noted are these: rat, oral; for AUC(0-t) / Cmax: Sprague Dawley. The text has this: The compounds of the invention were solubilized in a mixture of excipients consisting 40% Tween, 50% Peceol, 10% PEG400 and diluted with water to form a self-emulsifying aqueous mixture for oral administration to animals. For this study, Sprague Dawley rats that have been surgically implanted with indwelling jugular vein cannula (JVC) and portal vein cannula (PVC) were used (Agilux, Worcester, Mass.). This approach using double-cannulated rats allowed the measurement of the drug concentration that was delivered in the portal vein as well as the drug concentration that was present in the peripheral. For the PK study, serial blood collection was carried out at both the portal and jugular vein at the following time points: 10, 20, 40 min and 1, 2, 4 and 6 hours post dose. The bioanalytical portion of the PK study was carried out using an LC/MS/MS system (Agilent Model No: HPLC: 1200, MS: 6410) and analyzed with the appropriate software (WinNonlin Phoenix 64 6.3.0 395).

Chain of ΔF508 CFTR (P13569 with tags, fused parts or gaps DEL508-508): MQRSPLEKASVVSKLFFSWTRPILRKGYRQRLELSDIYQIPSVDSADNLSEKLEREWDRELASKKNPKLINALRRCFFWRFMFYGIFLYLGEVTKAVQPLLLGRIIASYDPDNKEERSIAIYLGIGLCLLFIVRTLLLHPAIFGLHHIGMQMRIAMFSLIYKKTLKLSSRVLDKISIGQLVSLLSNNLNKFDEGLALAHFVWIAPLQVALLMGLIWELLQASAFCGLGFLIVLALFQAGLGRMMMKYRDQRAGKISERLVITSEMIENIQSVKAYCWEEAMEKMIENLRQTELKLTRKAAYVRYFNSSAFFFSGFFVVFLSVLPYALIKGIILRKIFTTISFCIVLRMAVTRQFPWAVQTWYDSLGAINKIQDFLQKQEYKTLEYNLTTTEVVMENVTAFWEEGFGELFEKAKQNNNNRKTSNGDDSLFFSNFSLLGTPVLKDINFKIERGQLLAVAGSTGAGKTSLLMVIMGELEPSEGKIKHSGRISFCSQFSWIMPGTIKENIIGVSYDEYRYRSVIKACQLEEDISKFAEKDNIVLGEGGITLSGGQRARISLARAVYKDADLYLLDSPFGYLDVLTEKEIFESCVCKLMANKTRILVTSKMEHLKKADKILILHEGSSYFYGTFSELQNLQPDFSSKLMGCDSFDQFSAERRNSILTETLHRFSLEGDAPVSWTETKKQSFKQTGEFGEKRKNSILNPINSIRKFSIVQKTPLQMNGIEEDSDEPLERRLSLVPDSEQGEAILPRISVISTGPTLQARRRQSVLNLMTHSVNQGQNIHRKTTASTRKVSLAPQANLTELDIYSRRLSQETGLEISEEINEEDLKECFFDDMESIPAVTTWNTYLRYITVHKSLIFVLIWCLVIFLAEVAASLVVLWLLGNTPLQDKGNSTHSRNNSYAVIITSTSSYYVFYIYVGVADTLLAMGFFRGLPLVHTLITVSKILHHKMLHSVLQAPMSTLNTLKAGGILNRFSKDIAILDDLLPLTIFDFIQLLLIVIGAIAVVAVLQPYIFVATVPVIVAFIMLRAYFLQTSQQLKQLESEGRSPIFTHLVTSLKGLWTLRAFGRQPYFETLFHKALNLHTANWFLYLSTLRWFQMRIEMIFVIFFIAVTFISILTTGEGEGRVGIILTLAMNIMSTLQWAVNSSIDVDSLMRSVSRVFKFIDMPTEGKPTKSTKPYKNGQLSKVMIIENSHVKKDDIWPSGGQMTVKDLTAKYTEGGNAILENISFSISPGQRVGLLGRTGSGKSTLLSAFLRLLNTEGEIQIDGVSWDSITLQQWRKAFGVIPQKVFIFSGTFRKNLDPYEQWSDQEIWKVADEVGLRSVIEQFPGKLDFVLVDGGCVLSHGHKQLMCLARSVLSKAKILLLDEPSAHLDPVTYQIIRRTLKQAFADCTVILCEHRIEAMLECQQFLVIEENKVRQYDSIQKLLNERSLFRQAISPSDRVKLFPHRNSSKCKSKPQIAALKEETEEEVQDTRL

Usually Cmax stands for the highest concentration seen after dosing. With `CC/C=C\C/C=C\C/C=C\C/C=C\C/C=C\CCCC(=O)NCCSSCCNC(=O)c1cccnc1` [II-2, N-(2-((2-((5Z,8Z,11Z,14Z,17Z)-icosa-5,8,11,14,17-pentaenamido)ethyl)disulfanyl)ethyl)nicotinamide], on ΔF508 CFTR, the “functional rescue of CFTR (short circuit current vs vehicle)” value is reported as “able to functionally rescue CFTR function”. Moreover, the results for the “plasma stability (parent compound remaining)” value in series [1] and in series [2] were “unstable; also recorded: not stable” and “unstable”, respectively. In addition, the “autophagy marker LC3-II (lower band) levels” value in the series on LC3-II/LC3-I (Huh cells, 25 and 50 μM, 4 hours) was “increase”. Also, in the series with LC3-II/LC3-I (Huh-7, 50 μM, 2 hours), the “ratio of LC3-II to LC3-I compared to vehicle control” value is reported as “two-fold increase”. In addition, in the series with LC3-II/LC3-I (Huh-7, 50 μM, 2 hours, compared with cystamine, EPA or their combination (50 μM each)), the “autophagy marker LC3-II (lower band)” value is recorded as “synergistic increase”. For the same molecule, in the series on LC3-II/LC3-I (Huh-7, 50 μM, 4 hour treatment), the “activation of autophagy (ratio of LC3-II to LC3-I)” value was “synergistic and higher degree of activation of autophagy”. Moreover, the “ratio of LC3-II to LC3-I” value with LC3-II/LC3-I (Huh-7 cells, 25 μM, 4 hours) is given as “increased”. Besides, the AUC(0-t) in series [3] (jugular vein blood (peripheral), systemic circulation (jugular vein), read-out: peripheral AUClast) came to 0.443 ± 0.221 ng·h/mL; in series [3] (portal vein blood, portal vein, read-out: portal AUClast), 12.5 ± 6.5 ng·h/mL. The Cmax in series [3] (jugular vein blood (peripheral), systemic circulation (jugular vein), read-out: peripheral Cmax) amounted to 0.889 ± 0.33 ng/mL; in series [3] (portal vein blood, portal vein, read-out: portal Cmax), 20.8 ± 9.45 ng/mL. For the same molecule, the “degradation of the parent compound upon oral dosing” value in series [3] is on record as “significant amount of the parent compound was degraded”. The same molecule displayed a peripheral AUClast in series [3] (as restated in Example 23) of 0.889 ng·h/mL.
